Laboratory results reported in US10939681B2, “Tetrazolinone compound and use thereof” (SUMITOMO CHEMICAL COMPANY, LIMITED, priority 2017, dated 2021).

Test system: diamondback moth (Plutella xylostella)
Experiment: Control test against diamondback moth (Plutella xylostella), cabbage leaf spray
Type: in vivo
Settings: 500 ppm active ingredient, sprayed on cabbage seedlings 20 mL/seedling, 2nd instar larvae, after 5 days, 25° C.
Method: Next, a Test Example is used to show efficacy of the Present compound against pests. In the following Test Example, the test was carried out at 25° C. The Present compound was formulated according to the process described in the Formulation Example 6 to obtain a formulation, and water containing a spreader (0.03% by volume) was added thereto to prepare a diluted solution containing 500 ppm of the active ingredient. Cabbage (Brassicae oleracea) seedlings (on the developmental stage of the second to third true leaf) were planted in a container, and said diluted solution was sprayed into the leaves of the seedlings at a ratio of 20 mL/seedling. Thereafter, the stems and leaves of the seedlings were cut out, and the leaves were placed into a container lined with a filter paper. Approximately five the 2nd instar larvae of diamondback moth (Plutella xylostella) were released into the container. After 5 days, the number of the surviving insects was examined, and the controlling value was calculated by the following equation. […] Controlling value (%)={1−(Cb×Tai)/(Cai×Tb)}×100 wherein the symbols in the equation represent the following meanings. […]

## Cc1cccc(-n2nnn(C)c2=O)c1Cn1nnn(-c2cccc(C)c2COc2ccn(-c3ccc(Cl)cc3)n2)c1=O [Present compound]
  Controlling value (control effects): 100%
